Among the data in patent US20260285816A1, “Piperazinyl-Modified Quinazolinyl-Aryl Urea Derivative, And Preparation Method And Use Thereof” (Guangxi Normal University, priority 2025, published 2026) are IC50 values, retold here.

Assay type in all cases: cell-based, human
Assay [1] has as its system J82 cells. In words: CCK-8 anti-proliferative assay, J82. The following applies: Homo sapiens, J82, co-incubated 48 h, read-out: Anti-proliferative activity (IC50 ± standard deviation) J82. The essentials:
(§1)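 Dose range 1–30 μM final (nine levels, n=3), added at 70% confluency to 5,000 cells/well cultured at 37° C., 5% CO2. CCK-8 incubation 1-4 h depending on cell type.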

Assay [2] deals with UM-UC-3 cells. In words: CCK-8 anti-proliferative assay, UM-UC-3. The following applies: Homo sapiens, UMUC3, co-incubated 48 h, read-out: Anti-proliferative activity (IC50 ± standard deviation) UM-UC-3. The essentials: as §1
Assay [3] deals with T24 cells. The experiment in a line: CCK-8 anti-proliferative assay, T24. The following applies: Homo sapiens, T-24, co-incubated 48 h, read-out: Anti-proliferative activity (IC50 ± standard deviation) T24. The essentials: (§2)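 Cells seeded at 5,000/well were grown at 37° C. under 5% CO2 to 70% confluency, then exposed in triplicate to 1–30 μM compound (1, 2, 4, 6, 8, 12, 16, 24, 30 μM) for designated durations. CCK-8 was added for 1–4 h, OD read at 450 nm, and IC50 derived from inhibition versus control.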

Assay [4] relates to 5637 cells. In words: CCK-8 anti-proliferative assay, 5637. The following applies: Homo sapiens, co-incubated 48 h, read-out: Anti-proliferative activity (IC50 ± standard deviation) 5637. The method in brief:
as §1

Assay [5] deals with 143B cells. In words: CCK-8 anti-proliferative assay, 143B. The following applies: Homo sapiens, 143B, co-incubated 48 h, read-out: Anti-proliferative activity (IC50 ± standard deviation) 143B. The essentials: as §2
Assay [6] has as its system MG-63 cells. The experiment in a line: CCK-8 anti-proliferative assay, MG-63. The following applies: Homo sapiens, MG-63, co-incubated 48 h, read-out: Anti-proliferative activity (IC50 ± standard deviation) MG-63. The essentials:
as §2

The subject of assay [7] is BxPC-3 cells. The experiment in a line: CCK-8 anti-proliferative assay, BxPC-3. The following applies: Homo sapiens, BXPC-3, co-incubated 48 h, read-out: Anti-proliferative activity (IC50 ± standard deviation) BxPC-3. The method in brief: as §2
Assay [8] concerns PANC-1 cells. The experiment in a line: CCK-8 anti-proliferative assay, PANC-1. The following applies: Homo sapiens, PANC-1, co-incubated 48 h, read-out: Anti-proliferative activity (IC50 ± standard deviation) PANC-1. The method in brief:
as §2

Assay [9] has as its system HeLa cells. The experiment in a line: CCK-8 anti-proliferative assay, HeLa. The following applies: Homo sapiens, HeLa, co-incubated 48 h, read-out: Anti-proliferative activity (IC50 ± standard deviation) HeLa. The essentials: as §1
The subject of assay [10] is MCF-7 cells. The experiment in a line: CCK-8 anti-proliferative assay, MCF-7. The following applies: Homo sapiens, MCF7, co-incubated 48 h, read-out: Anti-proliferative activity (IC50 ± standard deviation) MCF-7. The method in brief:
as §1

In assay [11] the test system is A549 cells. In words: CCK-8 anti-proliferative assay, A549. The following applies: Homo sapiens, A549, co-incubated 48 h, read-out: Anti-proliferative activity (IC50 ± standard deviation) A549. The method in brief: as §1
Assay [12] deals with Hep G2 cells. In words: CCK-8 anti-proliferative assay, Hep G2. The following applies: Homo sapiens, HepG2, co-incubated 48 h, read-out: Anti-proliferative activity (IC50 ± standard deviation) Hep G2. The method in brief:
as §2

Assay [13] concerns SK-OV-3 cells. In words: CCK-8 anti-proliferative assay, SK-OV-3. The following applies: Homo sapiens, SK-OV-3, co-incubated 48 h, read-out: Anti-proliferative activity (IC50 ± standard deviation) SK-OV-3. The essentials:
as §1

The subject of assay [14] is immortalized ureteral epithelial cells (SV-HUC-1). The experiment in a line: CCK-8 anti-proliferative assay, normal cells SV-HUC-1. The following applies: Homo sapiens, SV-HUC1, normal cells, co-incubated 48 h, read-out: Anti-proliferative activity (IC50 ± standard deviation) SV-HUC-1. The method in brief: as §1
The subject of assay [15] is embryonic lung fibroblasts (WI-38). In words: CCK-8 anti-proliferative assay, normal cells WI-38. The following applies: Homo sapiens, read-out: Anti-proliferative activity (IC50 ± standard deviation) WI-38. The essentials:
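Logarithmic-phase cells are plated at 5,000 cells per well and incubated at 37° C. with 5% CO2. At 70% confluency, compound is added at nine final concentrations from 1 to 30 μM. After exposure, CCK-8 is added and OD at 450 nm measured to calculate IC50.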

Setting [16] is: WI-38, Table 13, co-incubated 48 h.
[17] abbreviates: WI-38, Table 9, co-incubated 48 h.

Like-named read-outs stand apart in the source and are kept apart here.

Regarding `COc1cc2ncnc(NCc3cccc(NC(=O)Nc4ccccc4C)c3)c2cc1OCCCCCCN1CCC(CN2CCN(c3ccccn3)CC2)CC1` [Compound 8-2b, N-(3-(((7-methoxy-6-((6-(4-((4-(pyridin-2-yl)piperazin-1-yl)methyl)piperidin-1-yl)hexyl)oxy)quinazolin-4-yl)amino)methyl)phenyl)-N′-(2-methylphenyl)urea], the IC50 in [1] (Table 10) stood at 6.86 ± 0.52 µM; in assay [2] (Table 10), 7.03 ± 0.37 µM; in assay [3] (Table 10), 6.96 ± 0.85 µM; in [4] (Table 10) it was 4.79 ± 0.43 µM; in [5] (Table 11) it was 6.47 ± 0.34 µM; in [6] (Table 11), 6.44 ± 0.81 µM. In addition, the IC50 in [7] (Table 11) was found to be 5.92 ± 0.38 µM; in assay [8] (Table 11), 14.5 ± 0.94 µM; in [9] (Table 12) it was 5.72 ± 0.41 µM; in assay [10] (Table 12) it was 7.25 ± 0.66 µM; in assay [11] (Table 13), 5.47 ± 0.22 µM; in assay [12] (Table 12), 4.04 ± 0.28 µM. Also, the IC50 stood at 6.21 ± 0.55 µM in assay [13] (Table 12), 8.74 ± 0.63 µM in assay [14] (Table 13) and 9.02 ± 0.41 µM in [15] (setting [16]).

`CCc1ccccc1NC(=O)Nc1cccc(CNc2ncnc3cc(OC)c(OCCCCCCN4CCN(CCN5CCOCC5)CC4)cc23)c1` [Compound 8-1g, N-(3-(((7-methoxy-6-((6-(4-(2-morpholinoethyl)piperazin-1-yl)hexyl)oxy)quinazolin-4-yl)amino)methyl)phenyl)-N′-(2-ethylphenyl)urea]: the IC50 in assay [1] (Table 6) stood at 19.7 ± 0.98 µM; in assay [2] (Table 6), 26 ± 1.79 µM; in assay [3] (Table 6), 24.8 ± 0.62 µM; in assay [4] (Table 6) it was 22.5 ± 0.79 µM; in [5] (Table 7), 19.3 ± 0.74 µM; in assay [6] (Table 7), 10.9 ± 0.93 µM. Besides, the IC50 worked out at 10.8 ± 0.52 µM in [7] (Table 7); 13.1 ± 0.78 µM in assay [8] (Table 7); 23 ± 0.99 µM in [9] (Table 8); 20.3 ± 1.88 µM in [10] (Table 8); 26.4 ± 2.59 µM in assay [11] (Table 8); 12.7 ± 0.74 µM in assay [12] (Table 8). Further, the IC50 in assay [13] (Table 9) was 6.38 ± 0.51 µM; in assay [14] (Table 9), above 30 µM; in [15] (setting [17]) it was above 30 µM.

With `COc1cc2ncnc(NCc3cccc(NC(=O)Nc4ccc(C)cc4)c3)c2cc1OCCCCCCN1CCN(CCN2CCOCC2)CC1` [Compound 8-1d, N-(3-(((7-methoxy-6-((6-(4-(2-morpholinoethyl)piperazin-1-yl)hexyl)oxy)quinazolin-4-yl)amino)methyl)phenyl)-N′-(4-methylphenyl)urea], the half-maximal inhibitory concentration (IC50) came to 5.89 ± 0.57 µM in assay [1] (Table 6); 13.2 ± 0.77 µM in assay [2] (Table 6); 6.59 ± 0.79 µM in assay [3] (Table 6); 7.72 ± 0.66 µM in assay [4] (Table 6); 8.62 ± 0.53 µM in assay [5] (Table 7); 7.73 ± 0.49 µM in [6] (Table 7). In addition, the IC50 in [7] (Table 7) is 13.7 ± 0.73 µM; in assay [8] (Table 7), 27.4 ± 2.24 µM; in assay [9] (Table 8), 16.1 ± 0.71 µM; in [10] (Table 8), above 30 µM; in assay [11] (Table 8), 15.8 ± 0.84 µM; in [12] (Table 8), 7.04 ± 0.48 µM. In addition, the half-inhibitory concentration (IC50) amounted to 9.26 ± 0.87 µM in assay [13] (Table 9), 12.8 ± 0.66 µM in assay [14] (Table 9) and 12.6 ± 0.92 µM in [15] (setting [17]).

Take `COc1cc2ncnc(NCc3cccc(NC(=O)Nc4ccc(F)cc4)c3)c2cc1OCCCCCCN1CCC(CN2CCN(c3ccccn3)CC2)CC1` [Compound 8-2n, N-(3-(((7-methoxy-6-((6-(4-((4-(pyridin-2-yl)piperazin-1-yl)methyl)piperidin-1-yl)hexyl)oxy)quinazolin-4-yl)amino)methyl)phenyl)-N′-(4-fluorophenyl)urea]: the IC50 in [1] (Table 10) stood at 15 ± 1.19 µM; in assay [2] (Table 10), 12.8 ± 0.76 µM; in [3] (Table 10), 5.82 ± 0.36 µM; in assay [4] (Table 10) it was 8.61 ± 0.73 µM; in assay [5] (Table 11), 6.71 ± 0.48 µM; in [6] (Table 11), 8.39 ± 0.66 µM. Also, the IC50 in assay [7] (Table 11) worked out at 14.4 ± 1.55 µM; in assay [8] (Table 11), 18.8 ± 1.43 µM; in assay [9] (Table 12), 12.7 ± 0.92 µM; in assay [10] (Table 12), 12.8 ± 0.85 µM; in [11] (Table 13), 15.4 ± 0.83 µM; in assay [12] (Table 12), 8.51 ± 0.67 µM. Also, the figures for the IC50 in [13] (Table 12), in [14] (Table 13) and in assay [15] (setting [16]) were 5.93 ± 0.61 µM, 14.4 ± 0.77 µM and 9.98 ± 0.53 µM, respectively.

For `COc1cc2ncnc(NCc3cccc(NC(=O)Nc4ccccc4)c3)c2cc1OCCCCCCN1CCC(CN2CCN(c3ccccn3)CC2)CC1` [Compound 8-2a, N-(3-(((7-methoxy-6-((6-(4-((4-(pyridin-2-yl)piperazin-1-yl)methyl)piperidin-1-yl)hexyl)oxy)quinazolin-4-yl)amino)methyl)phenyl)-N′-phenylurea], the IC50 in assay [1] (Table 10) is above 30 µM; in [2] (Table 10), 25.8 ± 1.81 µM; in [3] (Table 10) it was 15.8 ± 0.92 µM; in [4] (Table 10) it was 16.2 ± 0.77 µM; in assay [5] (Table 11) it was above 30 µM; in [6] (Table 11) it was 17.4 ± 1.38 µM. Also, the IC50 in assay [7] (Table 11) is above 30 µM; in assay [8] (Table 11), above 30 µM; in assay [9] (Table 12), above 30 µM; in assay [10] (Table 12) it was 26.3 ± 1.46 µM; in assay [11] (Table 13) it was above 30 µM; in assay [12] (Table 12), 25.7 ± 1.81 µM. Besides, the IC50 was 22.4 ± 1.33 µM in assay [13] (Table 12), 26.4 ± 1.69 µM in [14] (Table 13) and 17.6 ± 0.72 µM in [15] (setting [16]).

`COc1cc2ncnc(NCc3cccc(NC(=O)Nc4cccc(C)c4)c3)c2cc1OCCCCCCN1CCN(CCN2CCOCC2)CC1` [Compound 8-1c, N-(3-(((7-methoxy-6-((6-(4-(2-morpholinoethyl)piperazin-1-yl)hexyl)oxy)quinazolin-4-yl)amino)methyl)phenyl)-N′-(3-methylphenyl)urea]: the IC50 in assay [1] (Table 6) is 6.05 ± 0.63 µM; in assay [2] (Table 6) it was 14.1 ± 0.82 µM; in assay [3] (Table 6), 11.5 ± 0.66 µM; in [4] (Table 6), 13 ± 0.85 µM; in [5] (Table 7) it was 13 ± 0.84 µM; in assay [6] (Table 7) it was 7.34 ± 0.65 µM. The IC50 is 16.5 ± 0.92 µM in assay [7] (Table 7); above 30 µM in assay [8] (Table 7); above 30 µM in [9] (Table 8); 25.8 ± 2.53 µM in assay [10] (Table 8); 18.4 ± 0.98 µM in assay [11] (Table 8); 7.27 ± 0.51 µM in assay [12] (Table 8). In addition, the IC50 in assay [13] (Table 9) came to 9.73 ± 0.69 µM; in assay [14] (Table 9), 16 ± 0.81 µM; in [15] (setting [17]) it was 13.9 ± 0.73 µM.
